Consider six molecules from ChEMBL document CHEMBL1201862, “PubChem BioAssay data set” (2004).

Active and inactive are the calls of the source.

Holding throughout (assay type): functional
Assay [1] concerns the target T1, Interleukin-1 receptor-associated kinase 4 (Homo sapiens, UniProt Q9NWZ3).
T1 sequence (Q9NWZ3 whole entry): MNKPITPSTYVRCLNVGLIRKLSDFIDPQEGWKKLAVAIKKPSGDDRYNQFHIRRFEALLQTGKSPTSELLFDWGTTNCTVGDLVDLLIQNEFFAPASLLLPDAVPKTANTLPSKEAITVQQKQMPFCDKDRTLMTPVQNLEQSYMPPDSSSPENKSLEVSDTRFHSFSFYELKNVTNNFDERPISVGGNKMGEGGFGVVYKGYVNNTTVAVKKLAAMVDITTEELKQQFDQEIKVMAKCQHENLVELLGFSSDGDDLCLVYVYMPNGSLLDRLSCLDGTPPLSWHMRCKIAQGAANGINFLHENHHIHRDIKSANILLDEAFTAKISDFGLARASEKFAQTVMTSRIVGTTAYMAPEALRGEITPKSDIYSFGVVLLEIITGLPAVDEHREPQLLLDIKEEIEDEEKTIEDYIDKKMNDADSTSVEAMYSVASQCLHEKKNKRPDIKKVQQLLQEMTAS

Assay [2] has as its target MAP kinase-interacting serine/threonine-protein kinase 2 (Homo sapiens, UniProt Q9HBH9).
The target of assay [3] is Aurora kinase A (Homo sapiens, UniProt O14965).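 Also: value from the Navigating the Kinome kinase panel profiling, panel entry STK6.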
Assay [4] addresses Glycogen synthase kinase-3 beta (Homo sapiens, UniProt P49841).
Assay [5] deals with cAMP-dependent protein kinase catalytic subunit alpha (Homo sapiens, UniProt P17612).
Assay [6] deals with Serine/threonine-protein kinase pim-1 (Homo sapiens, UniProt P11309).
Sequence of Serine/threonine-protein kinase pim-1 (P11309 whole entry): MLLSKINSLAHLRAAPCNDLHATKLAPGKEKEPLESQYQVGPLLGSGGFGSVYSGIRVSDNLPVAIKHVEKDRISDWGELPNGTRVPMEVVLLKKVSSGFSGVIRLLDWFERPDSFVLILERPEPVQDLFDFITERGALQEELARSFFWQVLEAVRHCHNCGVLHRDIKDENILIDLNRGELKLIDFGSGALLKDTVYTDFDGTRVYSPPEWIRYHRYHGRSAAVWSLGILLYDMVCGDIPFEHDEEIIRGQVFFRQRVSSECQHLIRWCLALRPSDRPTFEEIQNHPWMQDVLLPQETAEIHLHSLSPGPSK
For assay [7], the target named is Mitogen-activated protein kinase kinase kinase kinase 4 (Homo sapiens, UniProt O95819).
Sequence of Mitogen-activated protein kinase kinase kinase kinase 4 (O95819 whole entry): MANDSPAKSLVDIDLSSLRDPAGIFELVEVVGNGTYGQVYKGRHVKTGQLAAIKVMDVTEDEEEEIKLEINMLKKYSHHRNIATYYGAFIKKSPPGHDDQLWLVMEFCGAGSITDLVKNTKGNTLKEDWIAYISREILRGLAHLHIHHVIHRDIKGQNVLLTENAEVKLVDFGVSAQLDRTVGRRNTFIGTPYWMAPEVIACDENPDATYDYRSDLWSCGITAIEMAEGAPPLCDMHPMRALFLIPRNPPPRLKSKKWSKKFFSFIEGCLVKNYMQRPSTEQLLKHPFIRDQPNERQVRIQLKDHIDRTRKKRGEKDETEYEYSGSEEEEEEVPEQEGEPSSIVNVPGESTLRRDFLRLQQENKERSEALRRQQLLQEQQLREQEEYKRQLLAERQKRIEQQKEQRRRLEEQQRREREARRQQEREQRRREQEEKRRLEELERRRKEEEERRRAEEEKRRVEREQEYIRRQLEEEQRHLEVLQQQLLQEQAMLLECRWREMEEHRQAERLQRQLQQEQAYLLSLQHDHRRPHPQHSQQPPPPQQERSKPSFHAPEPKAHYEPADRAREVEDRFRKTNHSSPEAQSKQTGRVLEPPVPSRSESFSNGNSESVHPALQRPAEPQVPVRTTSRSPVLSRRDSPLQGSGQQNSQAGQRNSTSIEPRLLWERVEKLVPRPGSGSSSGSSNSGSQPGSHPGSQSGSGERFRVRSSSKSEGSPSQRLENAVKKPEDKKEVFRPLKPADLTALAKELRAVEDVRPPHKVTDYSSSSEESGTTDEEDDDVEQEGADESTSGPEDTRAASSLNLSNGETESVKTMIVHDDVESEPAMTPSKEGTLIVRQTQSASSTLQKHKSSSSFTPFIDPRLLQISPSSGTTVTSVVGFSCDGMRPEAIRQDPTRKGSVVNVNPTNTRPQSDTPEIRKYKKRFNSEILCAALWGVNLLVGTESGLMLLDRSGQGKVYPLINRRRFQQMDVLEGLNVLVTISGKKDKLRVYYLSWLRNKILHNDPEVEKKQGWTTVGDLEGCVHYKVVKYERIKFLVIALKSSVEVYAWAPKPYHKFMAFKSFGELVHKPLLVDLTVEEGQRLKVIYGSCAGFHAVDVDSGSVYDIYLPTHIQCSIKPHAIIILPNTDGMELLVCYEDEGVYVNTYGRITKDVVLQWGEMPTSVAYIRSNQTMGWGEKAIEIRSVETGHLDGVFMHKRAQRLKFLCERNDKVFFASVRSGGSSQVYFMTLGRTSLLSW
Assay [8] deals with Aurora kinase B (Homo sapiens, UniProt Q96GD4).
Sequence of Aurora kinase B (Q96GD4 whole entry): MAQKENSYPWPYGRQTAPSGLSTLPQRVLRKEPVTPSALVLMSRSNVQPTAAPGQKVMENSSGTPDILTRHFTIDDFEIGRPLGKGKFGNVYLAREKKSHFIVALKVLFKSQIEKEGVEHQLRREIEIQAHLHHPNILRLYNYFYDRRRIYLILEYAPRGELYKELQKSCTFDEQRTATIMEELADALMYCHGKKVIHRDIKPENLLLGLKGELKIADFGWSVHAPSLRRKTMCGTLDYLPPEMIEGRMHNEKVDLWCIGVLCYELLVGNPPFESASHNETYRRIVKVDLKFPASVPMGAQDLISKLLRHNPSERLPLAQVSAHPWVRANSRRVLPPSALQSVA
Assay [9] deals with Dual specificity protein kinase CLK4 (Homo sapiens, UniProt Q9HAZ1).
Sequence of Dual specificity protein kinase CLK4 (Q9HAZ1 whole entry): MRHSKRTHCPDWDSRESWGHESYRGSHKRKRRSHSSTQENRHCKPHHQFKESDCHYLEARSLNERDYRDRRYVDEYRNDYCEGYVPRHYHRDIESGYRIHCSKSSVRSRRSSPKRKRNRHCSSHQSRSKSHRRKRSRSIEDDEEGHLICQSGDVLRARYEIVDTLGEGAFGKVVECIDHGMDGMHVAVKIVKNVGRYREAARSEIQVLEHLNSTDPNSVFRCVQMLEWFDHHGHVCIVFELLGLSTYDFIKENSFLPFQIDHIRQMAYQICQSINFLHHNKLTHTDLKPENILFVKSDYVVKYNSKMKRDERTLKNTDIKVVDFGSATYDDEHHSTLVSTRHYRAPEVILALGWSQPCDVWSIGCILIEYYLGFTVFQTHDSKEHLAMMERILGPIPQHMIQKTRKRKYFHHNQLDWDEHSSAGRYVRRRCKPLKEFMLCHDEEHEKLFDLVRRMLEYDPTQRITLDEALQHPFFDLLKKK
The target in assay [10] is Homeodomain-interacting protein kinase 2 (Homo sapiens, UniProt Q9H2X6).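 Also: measured within a kinome-wide kinase profiling panel, HIPK2 being one panel member.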
Sequence of Homeodomain-interacting protein kinase 2 (Q9H2X6 whole entry): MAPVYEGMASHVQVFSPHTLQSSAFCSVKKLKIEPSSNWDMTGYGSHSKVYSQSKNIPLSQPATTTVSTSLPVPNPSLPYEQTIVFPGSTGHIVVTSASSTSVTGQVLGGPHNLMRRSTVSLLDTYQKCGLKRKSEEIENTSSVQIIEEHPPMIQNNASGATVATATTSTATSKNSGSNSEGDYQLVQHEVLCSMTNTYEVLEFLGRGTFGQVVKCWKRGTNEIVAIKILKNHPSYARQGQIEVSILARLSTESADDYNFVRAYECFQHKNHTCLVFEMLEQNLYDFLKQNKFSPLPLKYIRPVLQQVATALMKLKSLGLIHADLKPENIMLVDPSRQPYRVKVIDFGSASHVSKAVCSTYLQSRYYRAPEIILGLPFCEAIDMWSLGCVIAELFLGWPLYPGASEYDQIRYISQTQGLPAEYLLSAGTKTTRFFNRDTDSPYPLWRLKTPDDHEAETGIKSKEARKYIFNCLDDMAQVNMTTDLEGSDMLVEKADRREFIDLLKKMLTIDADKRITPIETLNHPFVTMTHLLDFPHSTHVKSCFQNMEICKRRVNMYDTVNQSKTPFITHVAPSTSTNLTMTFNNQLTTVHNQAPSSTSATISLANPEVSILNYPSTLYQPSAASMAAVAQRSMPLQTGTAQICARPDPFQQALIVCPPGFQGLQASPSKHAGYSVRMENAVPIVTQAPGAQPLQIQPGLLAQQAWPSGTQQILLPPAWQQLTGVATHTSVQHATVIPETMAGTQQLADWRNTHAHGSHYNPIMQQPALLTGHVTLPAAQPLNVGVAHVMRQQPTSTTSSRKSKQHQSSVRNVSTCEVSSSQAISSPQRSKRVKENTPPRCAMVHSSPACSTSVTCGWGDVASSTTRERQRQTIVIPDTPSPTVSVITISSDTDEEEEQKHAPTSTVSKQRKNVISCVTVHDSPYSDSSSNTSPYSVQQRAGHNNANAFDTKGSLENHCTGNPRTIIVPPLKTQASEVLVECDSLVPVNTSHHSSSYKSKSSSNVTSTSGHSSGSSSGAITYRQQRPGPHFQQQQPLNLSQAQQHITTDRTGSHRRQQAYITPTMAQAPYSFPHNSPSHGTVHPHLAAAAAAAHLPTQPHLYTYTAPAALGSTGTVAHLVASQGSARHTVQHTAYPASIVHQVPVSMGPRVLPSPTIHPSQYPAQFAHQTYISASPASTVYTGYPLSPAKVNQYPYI
The target of assay [11] is Cyclin-dependent kinase 9 (Homo sapiens, UniProt P50750).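 Also: value from the CDK9 entry of a kinome-spanning kinase panel.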
Sequence of Cyclin-dependent kinase 9 (P50750 whole entry): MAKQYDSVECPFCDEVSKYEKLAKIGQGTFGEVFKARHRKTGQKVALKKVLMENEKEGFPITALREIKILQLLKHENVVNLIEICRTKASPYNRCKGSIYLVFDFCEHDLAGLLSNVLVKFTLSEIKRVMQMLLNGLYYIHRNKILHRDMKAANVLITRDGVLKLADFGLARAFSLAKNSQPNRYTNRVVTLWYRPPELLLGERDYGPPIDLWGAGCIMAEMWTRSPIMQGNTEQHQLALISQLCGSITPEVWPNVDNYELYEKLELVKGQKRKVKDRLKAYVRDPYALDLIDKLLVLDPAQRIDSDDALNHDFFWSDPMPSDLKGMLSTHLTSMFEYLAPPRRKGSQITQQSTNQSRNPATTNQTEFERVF
Assay [12] has as its target Cyclin-dependent kinase 7 (Homo sapiens, UniProt P50613).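 Also: value comes from a kinome-wide kinase profiling panel in which CDK7 is one member.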
In assay [13] the target is Cell division cycle 7-related protein kinase (Homo sapiens, UniProt O00311).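 Also: value obtained from a kinome-wide kinase panel.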
Assay [14] concerns the target Inhibitor of nuclear factor kappa-B kinase subunit epsilon (Homo sapiens, UniProt Q14164). The assay can be described thus: Navigating the Kinome. Panel member name: IKBKE.
Assay [15] addresses High affinity nerve growth factor receptor (Homo sapiens, UniProt P04629).
Assay [16] concerns the target Cyclin-dependent kinase 5 (Homo sapiens, UniProt Q00535).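 Also: CDK5 measured as one member of a kinase profiling panel.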
Assay [17] deals with Tyrosine-protein kinase receptor TYRO3 (Homo sapiens, UniProt Q06418).
The target in assay [18] is Platelet-derived growth factor receptor alpha (Homo sapiens, UniProt P16234). The assay can be described thus: Navigating the Kinome. Panel member name: PDGFRA.
In assay [19] the target is Activin receptor type-1 (Homo sapiens, UniProt Q04771). The assay can be described thus: Navigating the Kinome. Panel member name: ACVR1.
Assay [20] addresses Calcium/calmodulin-dependent protein kinase type II subunit alpha (Homo sapiens, UniProt Q9UQM7). The assay can be described thus: Navigating the Kinome. Panel member name: CAMK2A.
Assay [21] concerns the target G protein-coupled receptor kinase 5 (Homo sapiens, UniProt P34947). The assay is described as follows: Navigating the Kinome. Panel member name: GPRK5.
In assay [22] the target is Tyrosine-protein kinase JAK3 (Homo sapiens, UniProt P52333).
Assay [23] deals with Death-associated protein kinase 3 (Homo sapiens, UniProt O43293).
The target of assay [24] is Serine/threonine-protein kinase TAO1 (Homo sapiens, UniProt Q7L7X3).
Assay [25] has as its target Serine/threonine-protein kinase PAK 4 (Homo sapiens, UniProt O96013).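 Also: value obtained within a kinome profiling panel in which PAK4 was one of the panel members.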
For assay [26], the target named is Glycogen synthase kinase-3 alpha (Homo sapiens, UniProt P49840).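 Also: GSK3A result taken from a broad kinome-wide kinase panel.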
The target of assay [27] is Mitogen-activated protein kinase 8 (Homo sapiens, UniProt P45983).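 Also: value comes from one member of a kinome-wide kinase profiling panel.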
Assay [28] has as its target Tyrosine-protein kinase Fyn (Homo sapiens, UniProt P06241).
Assay [29] has as its target ALK tyrosine kinase receptor (Homo sapiens, UniProt Q9UM73).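 Also: ALK tested as one member of a kinase panel screen.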
The target in assay [30] is Macrophage-stimulating protein receptor (Homo sapiens, UniProt Q04912). The assay can be described thus: Navigating the Kinome. Panel member name: MST1R.
In assay [31] the target is Cyclin-dependent kinase 19 (Homo sapiens, UniProt Q9BWU1). The assay can be described thus: Navigating the Kinome. Panel member name: CDC2L6.

Sequence of Cyclin-dependent kinase 7 (P50613 whole entry): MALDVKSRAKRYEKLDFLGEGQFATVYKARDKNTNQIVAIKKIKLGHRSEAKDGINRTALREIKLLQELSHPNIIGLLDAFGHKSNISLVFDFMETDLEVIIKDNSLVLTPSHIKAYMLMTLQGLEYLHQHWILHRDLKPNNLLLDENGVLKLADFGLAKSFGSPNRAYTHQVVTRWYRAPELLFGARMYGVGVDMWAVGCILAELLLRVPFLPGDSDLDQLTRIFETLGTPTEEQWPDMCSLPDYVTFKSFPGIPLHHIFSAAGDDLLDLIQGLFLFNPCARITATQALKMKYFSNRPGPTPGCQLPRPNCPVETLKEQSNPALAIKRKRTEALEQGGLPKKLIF
Sequence of Glycogen synthase kinase-3 beta (P49841 whole entry): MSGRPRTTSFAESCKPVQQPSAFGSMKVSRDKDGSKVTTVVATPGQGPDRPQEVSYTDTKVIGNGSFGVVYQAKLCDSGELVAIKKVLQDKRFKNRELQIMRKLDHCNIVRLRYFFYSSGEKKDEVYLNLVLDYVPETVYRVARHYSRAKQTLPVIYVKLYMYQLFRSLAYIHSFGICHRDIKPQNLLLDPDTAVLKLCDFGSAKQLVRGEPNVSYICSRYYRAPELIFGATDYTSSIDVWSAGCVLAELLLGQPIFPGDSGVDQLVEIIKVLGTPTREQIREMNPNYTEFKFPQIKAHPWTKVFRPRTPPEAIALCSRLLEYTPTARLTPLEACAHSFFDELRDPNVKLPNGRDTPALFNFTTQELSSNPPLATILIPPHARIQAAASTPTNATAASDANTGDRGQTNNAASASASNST
Sequence of Cyclin-dependent kinase 5 (Q00535 whole entry): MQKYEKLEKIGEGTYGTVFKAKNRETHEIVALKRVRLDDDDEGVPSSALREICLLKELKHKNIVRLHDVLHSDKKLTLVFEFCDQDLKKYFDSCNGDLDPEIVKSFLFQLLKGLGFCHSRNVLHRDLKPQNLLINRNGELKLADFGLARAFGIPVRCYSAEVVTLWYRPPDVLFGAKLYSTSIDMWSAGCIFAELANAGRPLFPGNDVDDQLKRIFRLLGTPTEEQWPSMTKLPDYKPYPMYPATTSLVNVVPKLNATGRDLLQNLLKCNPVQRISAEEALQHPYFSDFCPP

For the molecule `Cc1ccc(Nc2nccc(Nc3ccccc3C(=O)O)n2)cc1F`, the inhibition constant Ki in [1] is 3.98 µM (active); in assay [2] it was 251 nM (active); in assay [3] it was 15.8 nM (active); in assay [4], 3.16 nM (active); in assay [5] it was > 7.94 µM (inactive); in assay [6], 158 nM (active). In addition, the Ki in assay [7] is 200 nM (active); in [8], 5.01 nM (active); in [9], 79.4 nM (active); in assay [10], 6.31 nM (active).

For the molecule `COCCNc1cc(-c2c[nH]c3ncccc23)cc(Cl)n1`, the Ki in assay [1] was 3.98 µM (active); in assay [4] it was 126 nM (active); in assay [11], 200 nM (active); in [12], 158 nM (active); in assay [5] it was 0.158 µM (active); in assay [13] it was 2 nM (active). Further, the inhibition constant Ki in assay [6] is 794 nM (active); in assay [10], 63.1 nM (active).

As for `Nc1ncnc2c1N=C(c1ccc(NC(=O)Nc3ccc(F)c(C(F)(F)F)c3)cc1)CCN2`, the figures for the inhibitory constant (Ki) in [14] and in assay [15] were 3.16 µM (active) and 126 nM (active), respectively.

`CC(=O)n1nc(N)c2ccc(Br)cc21`: the inhibition constant Ki in assay [16] was 1.58 µM (active); in [17], 2.51 µM (active); in assay [18], 2.51 µM (active).

Regarding `CN(C)c1ccc(NC(=O)CC2Nc3ccccc3NC2=O)cc1` (stereo unspecified), the Ki is > 3.98 µM (inactive) in assay [19]; > 3.98 µM (inactive) in assay [20]; > 3.98 µM (inactive) in [21]; > 5.01 µM (inactive) in assay [22]; > 5.01 µM (inactive) in assay [23]; > 6.31 µM (inactive) in assay [24]. Besides, the Ki in assay [25] was > 5.01 µM (inactive); in [26], > 3.98 µM (inactive); in assay [27], > 5.01 µM (inactive); in assay [28] it was > 6.31 µM (inactive); in [29], > 6.31 µM (inactive); in [12], > 3980 nM (inactive). The Ki in assay [6] is > 6310 nM (inactive); in [7] it was > 5010 nM (inactive); in assay [30] it was 398 nM (active).

`O=C1CC(c2ccccc2)Cc2[nH]c3cc(Cl)ccc3c(=O)c21` (stereo unspecified): the Ki in [6] was 2510 nM (active); in [9], 3980 nM (active); in [31], > 100 µM (inactive).

Usually Ki stands for a dissociation constant, usually derived from enzyme kinetics or from competition with a known ligand.
